Experiments:
Format in all cases: cell-based
OCI-AML3 cells = experiment: Viability assay (96 hours), Alamar Blue, single agent
Method: (§1) AML cell lines were maintained in RPMI 10% FBS medium at 37° C. in a humidified incubator with controlled 5% CO2 atmosphere. Cell freezing and thawing was performed following recommendation from ATCC. Genetic profiling of the cell lines used is available in table 2. […] Three wells were reserved for each experimental condition; medium-only and vehicle-treated controls were also added for background correction and normalization respectively. […] Alamar Blue® is a cell viability indicator that uses the natural reducing power of living cells to convert resazurin to the fluorescent molecule, resorufin^43.

OCI-AML2 cells = experiment: as above; conditions: Homo sapiens, OCI-AML2, 96 h, read-out: EC50 (viability)
Method: as §1

THP-1 cells = experiment: as above
Method: as §1

MOLM-13 cells = experiment: as above
Method: as §1

HL-60 cells = experiment: as above
Method: as §1

MV(4;11) cells = experiment: as above
Method: as §1

KASUMI-1 cells = experiment: as above
Method: as §1

MOLT4 cells = experiment: Viability assay (10 days), Alamar Blue, single agent
Method: MOLT4 cells were maintained in RPMI 10% FBS medium at 37° C. in a humidified incubator with controlled 5% CO2 atmosphere. Cell freezing and thawing was performed following recommendation from ATCC. Genetic profiling of the cell lines used is available in table 4.
2.1.2 Viability Assays (10 Days)
Three wells were reserved for each experimental condition; medium-only and vehicle-treated controls were also added for background correction and normalization respectively. After seeding, 50 μL of medium containing 8 1:3 serial dilution of ORY-1001 were added to the cells (range 0.015-100 nM). Cells were then incubated for 6 days at 37° C. in a controlled 5% CO2 atmosphere. On the sixth day, 1004, of medium with serial dilutions of ORY-1001 (as described previously) or vehicle were added to the cells. Medium without compound (100μ) was added to background control.
After 4 additional days of incubation, cell viability was evaluated using the Alamar Blue® staining as detailed in the section 1.1.2.

Row | Structure (SMILES) | EC50 (OCI-AML3 cells; Homo sapiens, OCI-AML-3, 96 h, read-out: EC50 (viability)) [µM] | EC50 (OCI-AML2 cells) [µM] | EC50 (THP-1 cells; Homo sapiens, THP-1, 96 h, read-out: EC50 (viability)) [µM] | EC50 (MOLM-13 cells; Homo sapiens, MOLM-13, 96 h, read-out: EC50 (viability)) [µM] | EC50 (HL-60 cells; Homo sapiens, HL-60, 96 h, read-out: EC50 (viability)) [µM] | EC50 (MV(4;11) cells; Homo sapiens, MV4-11, 96 h, read-out: EC50 (viability)) [µM] | EC50 (KASUMI-1 cells; Homo sapiens, Kasumi 1, 96 h, read-out: EC50 (viability)) [µM] | EC50 (viability) (OCI-AML3 cells; OCI-AML3, 96 hours, single agent) | EC50 (viability) (THP-1 cells; THP-1, 96 hours, single agent) | EC50 (viability) (MOLM-13 cells; MOLM-13, 96 hours, single agent) | EC50 (viability) (HL-60 cells; HL-60, 96 hours, single agent) | EC50 (viability) (MV(4;11) cells; MV(4;11), 96 hours, single agent) | EC50 (viability) (KASUMI-1 cells; KASUMI-1, 96 hours, single agent) | EC50 (viability) (MOLT4 cells; MOLT4, 10 days of treatment, single agent) | Effect on viability of MOLT-4 cells (MOLT4 cells; shorter treatment (96 hours), data not shown)
1 | O=C(CCCCCCNC(=O)c1cnc(N(c2ccccc2)c2ccccc2)nc1)NO [Rocilinostat, Ricolinostat, reference compound] | 0.5 to 3 | 0.5 to 3 | 0.5 to 3 | 0.5 to 3 | 0.5 to 3 | 0.5 to 3 | 0.5 to 3 |  |  |  |  |  |  |  | 
2 | N[C@H]1CC[C@H](N[C@@H]2C[C@H]2c2ccccc2)CC1 [ORY-1001, (trans)-N1-((1R,2S)-2-phenylcyclopropyl)cyclohexane-1,4-diamine] |  |  |  |  |  |  |  | sub-nanomolar | sub-nanomolar | sub-nanomolar | sub-nanomolar | sub-nanomolar | sub-nanomolar | sub-nanomolar | not affecting the viability
